Source: ChEMBL document CHEMBL1147888, “Convenient one pot synthesis and antimicrobial evaluation of some new Mannich bases carrying 4-methylthiobenzyl moiety” (2007)
≈ marks a conversion by molar mass, not a printed value.

Key:
Assay type in all cases: functional
Pseudomonas aeruginosa [1] = experiment: Antibacterial activity against Pseudomonas aeruginosa ATCC 27853 at 10 ug/ml after 24 hrs by disc diffusion method; settings: ATCC 27853, 24 h, read-out: IZ
Escherichia coli [2] = experiment: Antibacterial activity against Escherichia coli ATCC 25922 after 24 hrs by disc diffusion method; settings: ATCC 25922, 24 h
Klebsiella pneumoniae [3] = experiment: Antibacterial activity against Klebsiella pneumoniae after 24 hrs by disc diffusion method
Aspergillus flavus [4] = experiment: Antifungal activity against Aspergillus flavus NICM524 after 3 to 4 days by serial dilution method
Klebsiella pneumoniae [5] = experiment: Antibacterial activity against Klebsiella pneumoniae after 24 hrs at 10 ug/ml by disc diffusion method; settings: read-out: IZ
Candida albicans [6] = experiment: Antifungal activity against Candida albicans NICM3100 after 3 to 4 days by serial dilution method
Staphylococcus aureus [7] = experiment: Antibacterial activity against Staphylococcus aureus ATCC 25923 at 10 ug/ml after 24 hrs by disc diffusion method; settings: ATCC 25923, 24 h, read-out: IZ
Aspergillus flavus [8] = experiment: Antifungal activity against Aspergillus flavus NICM524 at 10 ug/ml after 3 to 4 days by serial dilution method; settings: read-out: IZ
Candida albicans [9] = experiment: Antifungal activity against Candida albicans NICM3100 at 10 ug/ml after 3 to 4 days by serial dilution method; settings: read-out: IZ
Talaromyces marneffei [10] = experiment: Antifungal activity against Penicillium marneffei at 10 ug/ml after 3 to 4 days by serial dilution method; settings: read-out: IZ
Aspergillus fumigatus [11] = experiment: Antifungal activity against Aspergillus fumigatus NICM902 after 3 to 4 days by serial dilution method
Escherichia coli [12] = experiment: Antibacterial activity against Escherichia coli ATCC 25922 after 24 hrs at 10 ug/ml by disc diffusion method; settings: ATCC 25922, 24 h, read-out: IZ
Staphylococcus aureus [13] = experiment: Antibacterial activity against Staphylococcus aureus ATCC 25923 after 24 hrs by disc diffusion method; settings: ATCC 25923, 24 h
Aspergillus fumigatus [14] = experiment: Antifungal activity against Aspergillus fumigatus NICM902 at 10 ug/ml after 3 to 4 days by serial dilution method; settings: read-out: IZ
Pseudomonas aeruginosa [15] = experiment: Antibacterial activity against Pseudomonas aeruginosa ATCC 27853 after 24 hrs by disc diffusion method; settings: ATCC 27853, 24 h
Talaromyces marneffei [16] = experiment: Antifungal activity against Penicillium marneffei after 3 to 4 days by serial dilution method

Row | SMILES | zone of inhibition at 10 µg/mL (Pseudomonas aeruginosa [1]) | MIC (Escherichia coli [2]) | MIC (Klebsiella pneumoniae [3]) | MIC (Aspergillus flavus [4]) | zone of inhibition at 10 µg/mL (Klebsiella pneumoniae [5]) | MIC (Candida albicans [6]) | zone of inhibition at 10 µg/mL (Staphylococcus aureus [7]) | zone of inhibition at 10 µg/mL (Aspergillus flavus [8]) | zone of inhibition at 10 µg/mL (Candida albicans [9]) | zone of inhibition at 10 µg/mL (Talaromyces marneffei [10]) | MIC (Aspergillus fumigatus [11]) | zone of inhibition at 10 µg/mL (Escherichia coli [12]) | MIC (Staphylococcus aureus [13]) | zone of inhibition at 10 µg/mL (Aspergillus fumigatus [14]) | MIC (Pseudomonas aeruginosa [15]) | MIC (Talaromyces marneffei [16])
1 | CSc1ccc(Cc2nn(CN3CCOCC3)c(=S)n2/N=C/c2ccc(C)cc2)cc1 | 12 mm | 25 µg/mL (≈ 55.1 µM) | 12.5 µg/mL (≈ 27.6 µM) | 25 µg/mL (≈ 55.1 µM) | 10 mm | 12.5 µg/mL (≈ 27.6 µM) | 10 mm | 12 mm | 12 mm | 10 mm | 12.5 µg/mL (≈ 27.6 µM) | 10 mm | 25 µg/mL (≈ 55.1 µM) | 10 mm | 12.5 µg/mL (≈ 27.6 µM) | 12.5 µg/mL (≈ 27.6 µM)
2 | CSc1ccc(Cc2nn(CN3CCN(C)CC3)c(=S)n2/N=C/c2ccc(Cl)cc2Cl)cc1 | 25 mm | 12.5 µg/mL (≈ 24 µM) | 6 µg/mL (≈ 11.5 µM) | 12.5 µg/mL (≈ 24 µM) | 20 mm | 6 µg/mL (≈ 11.5 µM) | 19 mm | 18 mm | 20 mm | 18 mm | 6 µg/mL (≈ 11.5 µM) | 18 mm | 12.5 µg/mL (≈ 24 µM) | 22 mm | 6 µg/mL (≈ 11.5 µM) | 6 µg/mL (≈ 11.5 µM)
3 | CSc1ccc(Cc2nn(CN3CCN(C)CC3)c(=S)n2/N=C/c2ccc3c(c2)OCO3)cc1 | 12 mm | 25 µg/mL (≈ 50.3 µM) | 12.5 µg/mL (≈ 25.2 µM) | 25 µg/mL (≈ 50.3 µM) | 10 mm | 12.5 µg/mL (≈ 25.2 µM) | 10 mm | 10 mm | 10 mm | 10 mm | 12.5 µg/mL (≈ 25.2 µM) | 12 mm | 25 µg/mL (≈ 50.3 µM) | 10 mm | 12.5 µg/mL (≈ 25.2 µM) | 12.5 µg/mL (≈ 25.2 µM)
4 | COc1ccc(/C=N/n2c(Cc3ccc(SC)cc3)nn(CN3CCOCC3)c2=S)cc1 | 12 mm | 25 µg/mL (≈ 53.2 µM) | 12.5 µg/mL (≈ 26.6 µM) | 25 µg/mL (≈ 53.2 µM) | 10 mm | 12.5 µg/mL (≈ 26.6 µM) | 12 mm | 12 mm | 10 mm | 12 mm | 12.5 µg/mL (≈ 26.6 µM) | 10 mm | 25 µg/mL (≈ 53.2 µM) | 12 mm | 12.5 µg/mL (≈ 26.6 µM) | 12.5 µg/mL (≈ 26.6 µM)
5 | CSc1ccc(Cc2nn(CN3CCN(C)CC3)c(=S)n2/N=C/c2ccc(C)cc2)cc1 | 12 mm | 25 µg/mL (≈ 53.6 µM) | 12.5 µg/mL (≈ 26.8 µM) | 25 µg/mL (≈ 53.6 µM) | 10 mm | 12.5 µg/mL (≈ 26.8 µM) | 10 mm | 12 mm | 12 mm | 11 mm | 12.5 µg/mL (≈ 26.8 µM) | 12 mm | 25 µg/mL (≈ 53.6 µM) | 10 mm | 12.5 µg/mL (≈ 26.8 µM) | 12.5 µg/mL (≈ 26.8 µM)
6 | CSc1ccc(Cc2nn(CN3CCN(C)CC3)c(=S)n2/N=C/c2ccc(F)cc2)cc1 | 10 mm | 25 µg/mL (≈ 53.1 µM) | 12.5 µg/mL (≈ 26.6 µM) | 25 µg/mL (≈ 53.1 µM) | 10 mm | 12.5 µg/mL (≈ 26.6 µM) | 12 mm | 10 mm | 10 mm | 10 mm | 12.5 µg/mL (≈ 26.6 µM) | 12 mm | 25 µg/mL (≈ 53.1 µM) | 12 mm | 12.5 µg/mL (≈ 26.6 µM) | 12.5 µg/mL (≈ 26.6 µM)
7 | CSc1ccc(Cc2nn(CN3CCOCC3)c(=S)n2/N=C/c2ccc(F)cc2)cc1 | 12 mm | 25 µg/mL (≈ 54.6 µM) | 12.5 µg/mL (≈ 27.3 µM) | 25 µg/mL (≈ 54.6 µM) | 12 mm | 12.5 µg/mL (≈ 27.3 µM) | 12 mm | 10 mm | 10 mm | 12 mm | 12.5 µg/mL (≈ 27.3 µM) | 12 mm | 25 µg/mL (≈ 54.6 µM) | 10 mm | 12.5 µg/mL (≈ 27.3 µM) | 12.5 µg/mL (≈ 27.3 µM)
8 | CSc1ccc(Cc2nn(CN3CCOCC3)c(=S)n2/N=C/c2ccc3c(c2)OCO3)cc1 | 12 mm | 25 µg/mL (≈ 51.7 µM) | 12.5 µg/mL (≈ 25.8 µM) | 25 µg/mL (≈ 51.7 µM) | 10 mm | 12.5 µg/mL (≈ 25.8 µM) | 10 mm | 10 mm | 10 mm | 10 mm | 12.5 µg/mL (≈ 25.8 µM) | 10 mm | 25 µg/mL (≈ 51.7 µM) | 12 mm | 12.5 µg/mL (≈ 25.8 µM) | 12.5 µg/mL (≈ 25.8 µM)
9 | COc1ccc(/C=N/n2c(Cc3ccc(SC)cc3)nn(CN3CCN(C)CC3)c2=S)cc1 | 10 mm | 25 µg/mL (≈ 51.8 µM) | 12.5 µg/mL (≈ 25.9 µM) | 25 µg/mL (≈ 51.8 µM) | 10 mm | 12.5 µg/mL (≈ 25.9 µM) | 10 mm | 12 mm | 10 mm | 10 mm | 12.5 µg/mL (≈ 25.9 µM) | 10 mm | 25 µg/mL (≈ 51.8 µM) | 12 mm | 12.5 µg/mL (≈ 25.9 µM) | 12.5 µg/mL (≈ 25.9 µM)
10 | CSc1ccc(/C=N/n2c(Cc3ccc(SC)cc3)nn(CN3CCN(C)CC3)c2=S)cc1 | 12 mm | 25 µg/mL (≈ 50.1 µM) | 12.5 µg/mL (≈ 25.1 µM) | 25 µg/mL (≈ 50.1 µM) | 10 mm | 12.5 µg/mL (≈ 25.1 µM) | 12 mm | 12 mm | 10 mm | 12 mm | 12.5 µg/mL (≈ 25.1 µM) | 10 mm | 25 µg/mL (≈ 50.1 µM) | 12 mm | 12.5 µg/mL (≈ 25.1 µM) | 12.5 µg/mL (≈ 25.1 µM)
11 | CSc1ccc(/C=N/n2c(Cc3ccc(SC)cc3)nn(CN3CCOCC3)c2=S)cc1 | 12 mm | 25 µg/mL (≈ 51.5 µM) | 12.5 µg/mL (≈ 25.7 µM) | 25 µg/mL (≈ 51.5 µM) | 12 mm | 12.5 µg/mL (≈ 25.7 µM) | 10 mm | 10 mm | 10 mm | 12 mm | 12.5 µg/mL (≈ 25.7 µM) | 12 mm | 25 µg/mL (≈ 51.5 µM) | 12 mm | 12.5 µg/mL (≈ 25.7 µM) | 12.5 µg/mL (≈ 25.7 µM)
12 | CSc1ccc(Cc2nn(CN3CCOCC3)c(=S)n2/N=C/c2ccc(Cl)cc2)cc1 | 12 mm | 25 µg/mL (≈ 52.7 µM) | 12.5 µg/mL (≈ 26.4 µM) | 25 µg/mL (≈ 52.7 µM) | 10 mm | 12.5 µg/mL (≈ 26.4 µM) | 10 mm | 10 mm | 10 mm | 10 mm | 12.5 µg/mL (≈ 26.4 µM) | 10 mm | 25 µg/mL (≈ 52.7 µM) | 10 mm | 12.5 µg/mL (≈ 26.4 µM) | 12.5 µg/mL (≈ 26.4 µM)
13 | CSc1ccc(Cc2nn(CN3CCN(C)CC3)c(=S)n2/N=C/c2ccc(Cl)cc2)cc1 | 24 mm | 12.5 µg/mL (≈ 25.7 µM) | 6 µg/mL (≈ 12.3 µM) | 12.5 µg/mL (≈ 25.7 µM) | 20 mm | 6 µg/mL (≈ 12.3 µM) | 18 mm | 18 mm | 19 mm | 20 mm | 6 µg/mL (≈ 12.3 µM) | 18 mm | 12.5 µg/mL (≈ 25.7 µM) | 20 mm | 6 µg/mL (≈ 12.3 µM) | 6 µg/mL (≈ 12.3 µM)
14 | CSc1ccc(Cc2nn(CN3CCOCC3)c(=S)n2/N=C/c2ccc(Cl)cc2Cl)cc1 | 23 mm | 12.5 µg/mL (≈ 24.6 µM) | 6 µg/mL (≈ 11.8 µM) | 25 µg/mL (≈ 49.2 µM) | 18 mm | 12.5 µg/mL (≈ 24.6 µM) | 18 mm | 10 mm | 10 mm | 10 mm | 12.5 µg/mL (≈ 24.6 µM) | 17 mm | 12.5 µg/mL (≈ 24.6 µM) | 12 mm | 6 µg/mL (≈ 11.8 µM) | 12.5 µg/mL (≈ 24.6 µM)
15 | Cc1cc(C2CCCCC2)n(O)c(=O)c1.NCCO [CICLOPIROX OLAMINE] |  |  |  | 12.5 µg/mL |  | 6 µg/mL |  | 18 mm | 20 mm | 20 mm | 6 µg/mL |  |  | 22 mm |  | 6 µg/mL
16 | O=C(O)c1cn(C2CC2)c2cc(N3CCNCC3)c(F)cc2c1=O [CIPROFLOXACIN] | 25 mm | 12.5 µg/mL (≈ 37.7 µM) | 6 µg/mL (≈ 18.1 µM) |  | 20 mm |  | 19 mm | 18 mm | 20 mm | 20 mm |  | 18 mm | 12.5 µg/mL (≈ 37.7 µM) | 22 mm | 6 µg/mL (≈ 18.1 µM) | 
